Source: patent US12612392B2, “Compound, pharmaceutical compositions containing same, synthesis method therefor and use thereof” (SHENZHEN ZHONGGE BIOLOGICAL TECHNOLOGY CO., LTD., priority 2022, dated 2026)

Test system: HEK293T/17-ATF4 uORF-Luc-Puro monoclonal cells
Assay: Cell activity test: ATF4 luciferase reporter, thapsigargin-induced stress
Assay type: cell-based
Settings: Homo sapiens, HEK-293T; ATF4 reporter expression, 50 nM thapsigargin, 6 hours
Description: The ATF4 luciferase reporter plasmid consists of two parts, i.e., the 5′ untranslated region sequence of the ATF4 gene and the luciferase coding sequence. Specifically, the ATF4 5′ untranslated region sequence (NCBI database number BC022088.2) containing two upstream open reading frames (uORFs), and the firefly luciferase encoding gene were cloned into the pLVX-Puro vector (YouBio, VT1465). The lentivirus packaging plasmids were psPAX2 (YouBio, VT1444) and pMD2.G (YouBio, VT1443). HEK293T/17 cells were transfected with the above three plasmids simultaneously using X-tremeGENE 9 DNA transfection reagent, and after 48 hours, a culture medium containing lentivirus was collected. HEK293T/17 cells transduced with the virus were screened with 1 μg/mL puromycin, and then monoclonal cells were obtained by limiting dilution.
By using this cell line and the cold fluorescence readings, the translational regulation of ATF4 can be detected, and the activity of the eIF2B activator can be tested. The specific experimental process is as follows: 6000 HEK293T/17-ATF4 uORF-Luc-Puro monoclonal cells were plated in a 384-well plate and allowed to adhere overnight. The test compounds were dissolved in DMSO and added together with 50 nM thapsigargin to the cell culture medium and incubated for 6 hours, wherein the thapsigargin was used to cause cellular stress and upregulate the protein translation of ATF4. Six hours after the addition, the cells were lysed using the One-Glo Luciferase Assay Kit (Promega #E6120), and then the cold fluorescence values were read using the LUM program of the EnVision 2104 plate reader.
The ATF4 reporter expression % was calculated as follows:
[formula] • ave_vc: average signal value of negative control • ave_pc: average signal value of positive control • ave_sample: average signal value of sample
The dose-response curves were fitted, and the EC50 values were calculated.
The nonlinear regression log (inhibitor) vs. response—variable slope (four parameters) method of GraphPad 9 software was used to fit the corresponding relationship between the ATF4 reporter expression % and the compound concentration.
X-axis: log value of compound concentration; Y-axis: ATF4 reporter expression %; Top: evaluation of upper asymptote of curve; Bottom: evaluation of lower asymptote of curve; Hillslope: slope of the fitted curve.
Compound `O=C(COc1ccccc1Cl)N[C@H]1CC[C@H](c2nnc(N3CC(OC(F)(F)F)C3)o2)CC1` [Compound 22] has an EC50 of over 100 nM. For `O=C(COc1ccc(Cl)c(F)c1)N[C@H]1CC[C@H](c2nnc(N3CC(OC(F)F)C3)o2)CC1` [Compound 19], the EC50 was 1 to 10 nM. For `O=C(COc1ccc(Cl)c(F)c1F)N[C@H]1CC[C@H](c2nnc(N3CC(OC(F)(F)F)C3)o2)CC1` [Compound 50], the EC50 was 1 to 10 nM. For `CP(C)(=O)C1CN(c2nnc(C34CCC(NC(=O)COc5ccc(Cl)c(F)c5)(CC3)CC4)o2)C1` [Compound 9], the EC50 was over 100 nM. For `O=C(N[C@H]1CC[C@H](c2nnc(N3CC(OC(F)(F)F)C3)o2)CC1)c1nc(Cl)c[nH]1` [Compound 41], the EC50 was over 100 nM. For `O=C(CO[C@H]1C[C@@H](OC(F)(F)F)C1)N[C@H]1CC[C@H](c2nnc(N3CC(OC(F)(F)F)C3)o2)CC1` [Compound 17], the EC50 was 10 to 100 nM. `O=C(COc1cccc(Cl)c1)N[C@H]1CC[C@H](c2nnc(N3CC(OC(F)(F)F)C3)o2)CC1` [Compound 23] gave an EC50 of 10 to 100 nM. Compound `O=C(COc1ccc(Cl)c(F)c1)N[C@H]1CC[C@H](c2nnc(NC3CC(C(F)(F)F)C3)o2)CC1` (stereo partly drawn) [Compound 11] has an EC50 of 10 to 100 nM. Compound `Cc1csc(C(=O)N[C@H]2CC[C@H](c3nnc(N4CC(OC(F)(F)F)C4)o3)CC2)n1` [Compound 42] has an EC50 of over 100 nM. With `O=C(COc1cccc(F)c1)N[C@H]1CC[C@H](c2nnc(N3CC(OC(F)(F)F)C3)o2)CC1` [Compound 24] the EC50 was 10 to 100 nM. Work on `O=C(COc1ccc(Cl)c(F)c1)NC12CCC(c3nnc(N4CC(OC(F)(F)C(F)(F)F)C4)o3)(CC1)CC2` [Compound 10] yielded an EC50 of 1 to 10 nM. In the case of `O=C(COc1ccc(Cl)c(Cl)c1)N[C@H]1CC[C@H](c2nnc(N3CC(OC(F)(F)F)C3)o2)CC1` [Compound 28], the EC50 is reported as under 1 nM. Work on `O=C(COc1ccc(Cl)c(F)c1)N[C@H]1CC[C@H](c2nnc(N3CC(OC(F)(F)F)C3)o2)C[C@H]1O` [Compound 86] yielded an EC50 of 1 to 10 nM. `C[C@@H]1[C@@H](OC(F)(F)F)CN1c1nnc([C@H]2CC[C@H](NC(=O)COc3ccc(Cl)c(F)c3)CC2)o1` [Compound 51-1] gave an EC50 of 10 to 100 nM. `O=C(COc1cc(F)c(Cl)c(F)c1)N[C@H]1CC[C@H](c2nnc(N3CC(OC(F)(F)F)C3)o2)CC1` [Compound 47] showed an EC50 of 1 to 10 nM. For `Fc1cc(OCC(=S)N[C@H]2CC[C@H](c3nnc(N4CC(OC(F)(F)F)C4)o3)CC2)ccc1Cl` [Compound 12], the EC50 was 1 to 10 nM. `O=C(COc1ccc(F)cc1Cl)N[C@H]1CC[C@H](c2nnc(N3CC(OC(F)(F)F)C3)o2)CC1` [Compound 31] showed an EC50 of over 100 nM. Compound `O=C(COc1ncc(Cl)cn1)N[C@H]1CC[C@H](c2nnc(N3CC(OC(F)(F)F)C3)o2)CC1` [Compound 35] has an EC50 of over 100 nM. For `O=C(N[C@H]1CC[C@H](c2nnc(N3CC(OC(F)(F)F)C3)o2)CC1)c1ccc2c(c1)CCCO2` [Compound 46], the EC50 was over 100 nM. `O=C(COc1cccc(Cl)c1Cl)N[C@H]1CC[C@H](c2nnc(N3CC(OC(F)(F)F)C3)o2)CC1` [Compound 32] showed an EC50 of over 100 nM. `O=C(COc1cc(F)c(Cl)cc1F)N[C@H]1CC[C@H](c2nnc(N3CC(OC(F)(F)F)C3)o2)CC1` [Compound 48] showed an EC50 of 1 to 10 nM. Compound `O=C(COc1ccc(Cl)c(F)c1)NC12CCC(c3nnc(N4CC(OC(F)(F)F)C4)o3)(CC1)CC2` [Compound 3] has an EC50 of 1 to 10 nM. For `COC1CN(c2nnc(C3CCC(NC(=O)COc4ccc(Cl)c(F)c4)CC3)o2)C1` (stereo not drawn) [Compound 2], the EC50 was 10 to 100 nM. `O=C(COc1ccc(F)cc1F)N[C@H]1CC[C@H](c2nnc(N3CC(OC(F)(F)F)C3)o2)CC1` [Compound 30] showed an EC50 of over 100 nM. For `C[C@@H]1[C@H](OC(F)(F)F)CN1c1nnc([C@H]2CC[C@H](NC(=O)COc3ccc(Cl)c(F)c3)CC2)o1` [Compound 51-2], the EC50 was over 100 nM. In the case of `O=C(COc1ccc(Cl)c(F)c1)NN1CCC(c2nnc(N3CC(OC(F)(F)F)C3)o2)CC1` [Compound 7], the EC50 is reported as under 1 nM. Compound `Nc1cc(Cl)ccc1OCC(=O)N[C@H]1CC[C@H](c2nnc(N3CC(OC(F)(F)F)C3)o2)CC1` [Compound 52] has an EC50 of over 100 nM. Compound `O=C(COc1ccc(Cl)cc1)N[C@H]1CC[C@H](c2nnc(N3CC(OC(F)(F)F)C3)o2)CC1` [Compound 15] has an EC50 of under 1 nM. In the case of `COC1CN(c2nnc(C3CCN(NC(=O)COc4ccc(Cl)c(F)c4)CC3)o2)C1` [Compound 1], the EC50 is reported as 10 to 100 nM. For `O=C(N[C@H]1CC[C@H](c2nnc(N3CC(OC(F)(F)F)C3)o2)CC1)c1cc(Cl)c[nH]1` [Compound 43], the EC50 was 10 to 100 nM. Work on `O=C(N[C@H]1CC[C@H](c2nnc(N3CC(OC(F)(F)F)C3)o2)CC1)c1cnc(C(F)F)cn1` [Compound 45] yielded an EC50 of over 100 nM. Compound `O=C(COc1cc(F)c(Cl)cc1Cl)N[C@H]1CC[C@H](c2nnc(N3CC(OC(F)(F)F)C3)o2)CC1` [Compound 49] has an EC50 of over 100 nM. With `O=C(COc1ccc(Cl)c(F)c1)N[C@@H]1CC[C@@H](c2nnc(N3CC(OC(F)(F)F)C3)o2)OC1` [Compound 16] the EC50 was 1 to 10 nM. In the case of `CN(c1nnc([C@H]2CC[C@H](NC(=O)COc3ccc(Cl)c(F)c3)CC2)o1)C1CC(C(F)(F)F)C1` (stereo partly drawn) [Compound 14], the EC50 is reported as 10 to 100 nM. In the case of `O=C(COc1ncc(C(F)(F)F)s1)N[C@H]1CC[C@H](c2nnc(N3CC(OC(F)(F)F)C3)o2)CC1` [Compound 53], the EC50 is reported as over 100 nM. In the case of `O=C(COc1ccc(Cl)c(Br)c1)N[C@H]1CC[C@H](c2nnc(N3CC(OC(F)(F)F)C3)o2)CC1` [Compound 26], the EC50 is reported as under 1 nM. For `O=C(COc1ccc(Cl)c(F)c1)NC12CCC(c3nnc(N4CC5(C4)CC(F)(F)C5)o3)(CC1)CC2` [Compound 8], the EC50 was 10 to 100 nM. `O=C(N[C@H]1CC[C@H](c2nnc(N3CC(OC(F)(F)F)C3)o2)CC1)c1ccc2cc(Cl)ccc2n1` [Compound 44] showed an EC50 of 1 to 10 nM. `O=C(COc1ccc(F)cc1)N[C@H]1CC[C@H](c2nnc(N3CC(OC(F)(F)F)C3)o2)CC1` [Compound 21] gave an EC50 of 10 to 100 nM. `O=C(COc1ccc(Cl)cc1F)N[C@H]1CC[C@H](c2nnc(N3CC(OC(F)(F)F)C3)o2)CC1` [Compound 33] showed an EC50 of 1 to 10 nM. Compound `O=C(COc1ccccc1F)N[C@H]1CC[C@H](c2nnc(N3CC(OC(F)(F)F)C3)o2)CC1` [Compound 29] has an EC50 of over 100 nM. For `O=C(COc1ccc(Cl)cn1)N[C@H]1CC[C@H](c2nnc(N3CC(OC(F)(F)F)C3)o2)CC1` [Compound 18], the EC50 was 10 to 100 nM. `O=C(COc1ccc(Cl)c(F)c1)NC12CCC(c3nnc(N4CC(OC(F)(F)F)C4)o3)(CC1)CC2O` (stereo not drawn) [Compound 4] gave an EC50 of under 1 nM. `O=C(COc1ccc(F)c(F)c1)N[C@H]1CC[C@H](c2nnc(N3CC(OC(F)(F)F)C3)o2)CC1` [Compound 34] showed an EC50 of 1 to 10 nM. `O=C(CO[C@H]1CC[C@H](c2nnc(N3CC(OC(F)(F)F)C3)o2)CC1)Nc1ccc(Cl)c(F)c1` [Compound 90] showed an EC50 of 1 to 10 nM. `O=C(COc1ccc(F)c(Cl)c1)N[C@H]1CC[C@H](c2nnc(N3CC(OC(F)(F)F)C3)o2)CC1` [Compound 25] gave an EC50 of 1 to 10 nM. Compound `O=C(COc1ccc(Cl)cc1Cl)N[C@H]1CC[C@H](c2nnc(N3CC(OC(F)(F)F)C3)o2)CC1` [Compound 27] has an EC50 of 10 to 100 nM.

Test system: not listed separately
Assay: Cell membrane permeability (A to B / B to A, efflux ratio)
Assay type: in vitro ADME
Settings: not given
Procedure: The test compounds were diluted from 10 mM stock solutions to a concentration of 10 μM using the transport buffer (HBSS+BSA) and applied to the apical or basolateral side of the cell monolayer. After the incubation at 37° C., 5% CO2 and 95% relative humidity for 120 minutes, the permeability of the test compounds in the A to B direction or the B to A direction was tested in duplicate. In addition, the efflux ratio of each compound was determined. The test substances and reference substances were quantitatively analyzed by the LC-MS/MS method based on the analyte/IS peak area ratio.
`C[C@H]1O[C@@H](O[C@H]2[C@@H](O)C[C@H](O[C@H]3[C@@H](O)C[C@H](O[C@H]4CC[C@@]5(C)[C@H](CC[C@@H]6[C@@H]5C[C@@H](O)[C@]5(C)[C@@H](C7=CC(=O)OC7)CC[C@]65O)C4)O[C@@H]3C)O[C@@H]2C)C[C@H](O)[C@@H]1O` [Digoxin, reference compound] showed an efflux ratio at 120 min, 10 µM of 44.1.
